Measured values from the supplement of paper PMC10307832.

Experiments:
Assay in all cases: relative viability (nuclei count vs DMSO), 5 days (fraction); higher = more cells survive
[1] = system: NCI-H23
Summary of the method: (§1)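 Lung cancer cell lines were pin-tool dosed in 1536-well plates on the day after seeding, with either a lone drug or a fixed anchor-drug dose plus five library-drug doses (not always all listed) in √10 steps. Nuclei were counted on 4× images after 5 days. Relative viability is the ratio of treated-well to vehicle-well nuclei counts, with each value a median of duplicate plates.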

[2] = system: NCI-H1355
Summary of the method: as §1

[3] = system: NCI-H1993
Summary of the method: as §1

[4] = system: UMC-11
Summary of the method: as §1

[5] = system: LCLC-97TM1
Summary of the method: as §1

[6] = system: NCI-H322M
Summary of the method: as §1

[7] = system: NCI-H1648
Summary of the method: as §1

[8] = system: NCI-H596
Summary of the method: as §1

Nc1ccn([C@@H]2O[C@H](CO)[C@@H](O)[C@@H]2O)c(=O)n1 [Cytarabine] + CC(=O)c1c(C)c2cnc(Nc3ccc(N4CCNCC4)cn3)nc2n(C2CCCC2)c1=O [Palbociclib] (partner 0.5 µM)
relative viability ([1]; first compound 0.005 µM): 0.617
relative viability ([1]; first compound 0.01581 µM): 0.367
relative viability ([1]; first compound 0.05 µM): 0.299
relative viability ([1]; first compound 0.1581 µM): 0.193
relative viability ([1]; first compound 0.5 µM): 0.169
relative viability ([2]; first compound 0.005 µM): 0.595
relative viability ([2]; first compound 0.01581 µM): 0.325
relative viability ([2]; first compound 0.05 µM): 0.396
relative viability ([2]; first compound 0.1581 µM): 0.28
relative viability ([2]; first compound 0.5 µM): 0.232
relative viability ([3]; first compound 0.005 µM): 0.714
relative viability ([3]; first compound 0.01581 µM): 0.489
relative viability ([3]; first compound 0.05 µM): 0.518
relative viability ([3]; first compound 0.1581 µM): 0.507
relative viability ([3]; first compound 0.5 µM): 0.323
relative viability ([4]; first compound 0.005 µM): 0.371
relative viability ([4]; first compound 0.01581 µM): 0.304
relative viability ([4]; first compound 0.05 µM): 0.263
relative viability ([4]; first compound 0.1581 µM): 0.236
relative viability ([4]; first compound 0.5 µM): 0.219
relative viability ([5]; first compound 0.005 µM): 0.186
relative viability ([5]; first compound 0.01581 µM): 0.135
relative viability ([5]; first compound 0.05 µM): 0.198
relative viability ([5]; first compound 0.1581 µM): 0.124
relative viability ([5]; first compound 0.5 µM): 0.0884
relative viability ([6]; first compound 0.005 µM): 0.414
relative viability ([6]; first compound 0.01581 µM): 0.492
relative viability ([6]; first compound 0.05 µM): 0.42
relative viability ([6]; first compound 0.1581 µM): 0.385
relative viability ([6]; first compound 0.5 µM): 0.383
relative viability ([7]; first compound 0.005 µM): 0.29
relative viability ([7]; first compound 0.01581 µM): 0.283
relative viability ([7]; first compound 0.05 µM): 0.263
relative viability ([7]; first compound 0.1581 µM): 0.308
relative viability ([7]; first compound 0.5 µM): 0.273

CC(=O)O[C@@]12CO[C@@H]1C[C@H](O)[C@@]1(C)C(=O)[C@H](O)C3=C(C)[C@@H](OC(=O)[C@H](O)[C@@H](NC(=O)OC(C)(C)C)c4ccccc4)C[C@@](O)([C@@H](OC(=O)c4ccccc4)[C@H]21)C3(C)C [Docetaxel] + CC(=O)Nc1cccc(-n2c(=O)n(C3CC3)c(=O)c3c(Nc4ccc(I)cc4F)n(C)c(=O)c(C)c32)c1 [Trametinib] (partner 0.02 µM)
relative viability ([1]; first compound 0.0002 µM): 0.377
relative viability ([1]; first compound 0.000632 µM): 0.294
relative viability ([1]; first compound 0.002 µM): 0.278
relative viability ([1]; first compound 0.006325 µM): 0.195
relative viability ([1]; first compound 0.02 µM): 0.132
relative viability ([2]; first compound 0.0002 µM): 0.384
relative viability ([2]; first compound 0.000632 µM): 0.441
relative viability ([2]; first compound 0.002 µM): 0.262
relative viability ([2]; first compound 0.006325 µM): 0.26
relative viability ([2]; first compound 0.02 µM): 0.183
relative viability ([3]; first compound 0.0002 µM): 0.504
relative viability ([3]; first compound 0.000632 µM): 0.578
relative viability ([3]; first compound 0.002 µM): 0.546
relative viability ([3]; first compound 0.006325 µM): 0.481
relative viability ([3]; first compound 0.02 µM): 0.3
relative viability ([4]; first compound 0.0002 µM): 0.62
relative viability ([4]; first compound 0.000632 µM): 0.788
relative viability ([4]; first compound 0.002 µM): 0.358
relative viability ([4]; first compound 0.006325 µM): 0.216
relative viability ([4]; first compound 0.02 µM): 0.147
relative viability ([5]; first compound 0.0002 µM): 0.171
relative viability ([5]; first compound 0.000632 µM): 0.195
relative viability ([5]; first compound 0.002 µM): 0.148
relative viability ([5]; first compound 0.006325 µM): 0.108
relative viability ([5]; first compound 0.02 µM): 0.08
relative viability ([6]; first compound 0.0002 µM): 0.554
relative viability ([6]; first compound 0.000632 µM): 0.507
relative viability ([6]; first compound 0.002 µM): 0.441
relative viability ([6]; first compound 0.006325 µM): 0.524
relative viability ([6]; first compound 0.02 µM): 0.441
relative viability ([8]; first compound 0.0002 µM): 0.807
relative viability ([8]; first compound 0.000632 µM): 0.997
relative viability ([8]; first compound 0.002 µM): 0.642
relative viability ([8]; first compound 0.006325 µM): 0.555
relative viability ([8]; first compound 0.02 µM): 0.277
relative viability ([7]; first compound 0.0002 µM): 0.435
relative viability ([7]; first compound 0.000632 µM): 0.456
relative viability ([7]; first compound 0.002 µM): 0.367
relative viability ([7]; first compound 0.006325 µM): 0.288
relative viability ([7]; first compound 0.02 µM): 0.193
